Measurements reported in patent US10151756B2, “Predictive markers for polyamine inhibitor cancer therapies” (ARIZONA BOARD OF REGENTS ON BEHALF OF UNIVERSITY OF ARIZONA, priority 2012, dated 2018).
Entries after “also recorded” stand apart in the source; their conditions may differ.

Key:
[1] = test system: tumors harboring Ki-ras mutations; settings: AOM-treated rats; reduced from 90%; cited from earlier work
colon cancer cells = assay: Measurements of intracellular polyamine content (HPLC); format: cell-based, human
Excerpt: Measurements of Intracellular Polyamine Content.
Cells were homogenized in 0.2 N HClO4. Acid-soluble and acid insoluble fractions were used to determine intracellular polyamines and protein content, respectively.
It was hypothesized that the polyamines, acting independently or via eIFSA, might affect levels of non-coding RNAs.

[2] = test system: colorectal cancer cells (HCT116); assay: Non-coding RNA microarray of DFMO treated vs untreated cells; format: cell-based, human; settings: 96 h
Procedure: (§1) HCT116 cells were grown in DMEM media supplemented with 10% fetal bovine serum and cultured at 37° C. For reverse transcription, total RNA was extracted using mirVana RNA isolation kit and reverse transcription performed using Taqman Small RNA Assays with predesigned primer specific to mature let-7 (Applied Biosystems). […] Western blots were conducted using anti-HMGA2 (Cell Signaling), LIN28 (abcam), anti-V5 (Invitrogen), eIF5A1 (Epitomics), and Actin (Sigma). Locked Nucleic Acid (LNA) anti-sense oligos were purchased from Exiqon and directed against seed region of let-7 as described previously (Obad et al., 2011). Pre-designed Silencer Select siRNAs (Invitrogen) were obtained to specifically knockdown eIFSA isoforms. All transfections were conducted using Lipofectamine 2000 as described by manufacturer for up to 48 h. All bars show mean±s.d and statistical analysis was performed by using Student's t-test (*P<0.05; **P<0.01, ***P<0.001).
Non-Coding RNA Microarray.
Samples for miRNA profiling studies were processed by Asuragen Services (Austin, Tex.), according to the company's standard operating procedures. Following incoming sample quality control (QC) assessment, the 3′ ends of RNA molecules in total RNA samples were labeled with biotin according to the company's standard protocol. Labeled RNA (100 ng total RNA per sample) was purified and hybridized to Affymetrix GeneChip® miRNA Arrays (Affymetrix, Santa Clara, Calif.). Hybridization, washing, staining, imaging, and signal extraction were performed according to Affymetrix-recommended procedures. Arrays were scanned on an Affymetrix GeneChip® Scanner 3000 7G.
Signal Processing. The signal processing implemented for the Affymetrix miRChip is a multi-step process involving probe specific signal detection calls, background estimate and correction. For each probe, a global robust multichip average (RMA) background correction is performed with Median Polish summarization. Arrays within a specific analysis experiment are normalized together using Quantile normalization. Detection calls are based on a Wilcoxon rank-sum test of the miRNA probe signal compared to the distribution of signals from GC-content matched anti-genomic probes. The raw gene expression data (.cel files) were converted to expression values using the miRNAQCTool, an open-source package available through Affymetrix. […]. RMA selection was used as a normalization method. Permutation P-values were then calculated for the t-test comparison between the DFMO treated and untreated placebo plates. These P-values were then ranked and a candidate gene list was compiled, using false discovery rate (FDR), adjusted P-value cut-offs obtained by the linear step-up method described by Benjamini and Hochberg (1995).
Next, the mechanism by which polyamines modulate oncogenesis and the effects of polyamine depletion on non-coding RNA levels was investigated by using a non-coding RNA microarray platform containing 15,644 probes, which included 1105 human mature miRNAs. MicroRNAs (miRNAs) are small endogenous RNA species known to modulate cellular signaling predominantly by binding the 3′ untranslated region (UTR) of RNA species. Binding of miRNAs to its cognate target generally results in mRNA destabilization or translational repression (Filipowicz et al., 2008). As a result of the abilities of miRNAs to modulate signaling networks involved in both development and neoplastic diseases, miRNAs serve as attractive targets for disease intervention.

HMGA2 = assay: Immunoblot of HMGA2 protein in HCT116 cells; format: cell-based, human
Procedure: as §1, with “Locked Nucleic Acid (LNA) anti-sense oligos were purchased from Exiqon and directed against seed region of let-7 as described previously (Obad et al., 2011).” left out, “All transfections were conducted using Lipofectamine 2000 as described by manufacturer for up to 48 h.” left out
(§2) Immunoblot Analysis and Quantification of Western Blot Results.
(§3) Protein concentrations were determined using BCA assay (Pierce). […] Membranes were washed three times for 10 min and subsequently secondary antibodies were incubated with anti-mouse and anti-rabbit horseradish peroxidase conjugated antibodies (Santa Cruz Biotechnologies). Proteins were visualized by chemoluminescence using Amersham Plus ECL reagent (GE Healthcare). Bands were quantified via Western blot analysis by applying ImageJ software analysis. […] Briefly, areas under the curves were assessed for each specific band and comparisons were calculated by setting corresponding control values as 100% and each condition corrected by actin.
(§4) The LNA probes were purchased from Exiqon and synthesized using a phosphorothioate backbone.

Hmga2 3′ UTR = assay: Hmga2 3' UTR luciferase reporter assay; format: cell-based
Procedure: Luciferase Reporter Assays.
Hmga2 3′ UTR reporter plasmids were obtained from Addgene (Plasmid 14785) and have been characterized in previous studies (Mayr et al., 2007). A mutated Hmga2 reporter plasmid with disrupted let-7 complementary sites was also obtained (Addgene plasmid 14792). HCT116 cells were transfected in 6-well plates with 1.5 μg firefly luciferase and 1.5 μg Hmga2 Renilla luciferase reporter plasmids. For functional analysis, 25 nM LNA directed against the let-7 family were transfected with appropriate plasmids. Firefly and renilla luciferase were measured 48 h after transfection using a Dual Luciferase Assay (Promega). Results were then normalized to firefly luciferase. Results are mean±SD.

HCT116 cells = assay: Cellular proliferation and viability (Vi-Cell counter, trypan blue exclusion); format: cell-based, human
Procedure: Cellular Proliferation. […] At each time point, cells were trypsinized with 500 μL of trypsin and resuspended with 1.5 mL DMEM supplemented with FBS. One milliliter of the resuspension was then loaded and analyzed using a Beckman-Coulter Vi-Cell Counter. Cellular viability was measured through the trypan blue exclusion assay.

tumor putrescine levels = settings: rat-tumor model, DFMO infusion; cited from earlier work
LIN28 = assay: Immunoblot of LIN28 protein in HCT116 cells; format: cell-based, human
Procedure: as §1, with “Locked Nucleic Acid (LNA) anti-sense oligos were purchased from Exiqon and directed against seed region of let-7 as described previously (Obad et al., 2011).” left out, “All transfections were conducted using Lipofectamine 2000 as described by manufacturer for up to 48 h.” left out
as §2, §3, §4

hsa-let-7i = assay: Real-time quantitative RT-PCR of mature let-7i; format: cell-based, human
Procedure: as §1, with “Locked Nucleic Acid (LNA) anti-sense oligos were purchased from Exiqon and directed against seed region of let-7 as described previously (Obad et al., 2011).” left out, “All transfections were conducted using Lipofectamine 2000 as described by manufacturer for up to 48 h.” left out
RNA Isolation and Real-Time Quantitative RT-PCR.
Total RNA was extracted from cells using the miRVana RNA isolation kit (Ambion) and measured using Thermo Scientific NanoDrop 2000. miRNA levels were measured using an Applied Biosystems 7500 HT PCR instrument with Taqman microRNA assay kits. Controlled reactions were confirmed by excluding reverse transcriptase to confirm amplification from cDNA. Results were analyzed using comparative Ct method between untreated and treated cells. Statistical analysis was performed using two tailed Student's t-tests.

prostoglandin E2 (PGE2) = settings: 300 mg/day, one month; cited from earlier work
[3] = in vivo; cited from earlier work
[4] = cited from earlier work
[5] = cited from earlier work; remark: listed apart in the source

CN1C(C(=O)Nc2ccccn2)=C(O)c2ccccc2S1(=O)=O [piroxicam, 4-hydroxy-2-methyl-N-2-pyridyl-2H-1,2-benzothiazine-3-carboxamide 1,1-dioxide]
number of tumors harboring Ki-ras mutations [1]: 25%

NCCCC(N)(C(=O)O)C(F)F (racemic) [DFMO, 2-(difluoromethyl)-dl-ornithine]
intracellular polyamine pools (colon cancer cells; colon cancer cells, 96 h of DFMO treatment (FIG. 1A)): depletion of putrescine and spermidine | Mean Expression Level Treatment, probe U8_st ([2]; probe U8_st): 8.90 | Mean Expression Level Treatment, probe U8_x_st ([2]; probe U8_x_st): 8.86 | Mean Expression Level Treatment, probe U13_st ([2]; probe U13_st): 9.81 | Mean Expression Level Treatment, probe U50B_st ([2]; probe U50B_st): 10.72 | Mean Expression Level Treatment, probe U50B_x_st ([2]; probe U50B_x_st): 9.86 | Mean Expression Level Treatment, probe hsa-let-7i_st ([2]; probe hsa-let-7i_st): 10.74 | Mean Expression Level Treatment, probe hsa-miR-22_st ([2]; probe hsa-miR-22_st): 10.38 | Mean Expression Level Treatment, probe hsa-miR-193b_st ([2]; probe hsa-miR-193b_st): 8.79 | Mean Expression Level Treatment, probe hsa-miR-200a-star_st ([2]; probe hsa-miR-200a-star_st): 4.89 | Mean Expression Level Treatment, probe hsa-miR-221_st ([2]; probe hsa-miR-221_st): 12.50 | Mean Expression Level Treatment, probe hsa-miR-494_st ([2]; probe hsa-miR-494_st): 12.64 | Mean Expression Level Treatment, probe hsa-miR-517a_st ([2]; probe hsa-miR-517a_st): 1.47 | Mean Expression Level Treatment, probe hsa-miR-720_st ([2]; probe hsa-miR-720_st): 14.63 | Mean Expression Level Treatment, probe hsa-miR-886-3p_st ([2]; probe hsa-miR-886-3p_st): 11.26 | HMGA2 protein levels (HMGA2; HCT116 cells, 5 mM DFMO, 72 h (FIG. 2A, 2C)): robust HMGA2 depletion; also recorded: lower HMGA2 levels | HMGA2 luciferase activity (Hmga2 3′ UTR; DFMO-treated mock cells compared to mock-untreated cells (FIG. 2B)): a reduction in HMGA2 luciferase was observed | cellular viability levels (HCT116 cells; DFMO treatment, trypan blue exclusion): not altered | cellular proliferation (HCT116 cells; HCT116 cells, 5 mM DFMO (FIG. 1B)): reduce cellular proliferation | decrease in tumor putrescine levels (tumor putrescine levels): 90% | number of tumors harboring Ki-ras mutations [1]: 36% | LIN28 protein levels (LIN28; HCT116 cells, 5 mM DFMO, 72 h (FIG. 2A)): lowered levels of LIN28 | expression of mature let-7i (hsa-let-7i; HCT116 cells treated with DFMO, maximal at 96 h (FIG. 1C)): Increased expression

CC(C)Cc1ccc(C(C)C(=O)O)cc1 (stereo not shown) [ibuprofen]
prostoglandin E2 (PGE2) levels in flat mucosa (prostoglandin E2 (PGE2)): significant decrease

NCCCCN [putrescine]
intracellular polyamine levels in DFMO-treated cells (colon cancer cells; exogenous putrescine supplementation of DFMO-treated cells (FIG. 1A)): restore intracellular polyamine levels | cellular proliferation of DFMO-treated cells (HCT116 cells; HCT116 cells, 50 μM putrescine with 5 mM DFMO (FIG. 1B)): proliferation rates similar to control levels | LIN28 protein levels in non-drug treated cells (LIN28; putrescine supplementation alone (FIG. 2A)): did not alter | LIN28 protein levels in DFMO treated cells (LIN28; putrescine supplementation in DFMO treated cells (FIG. 2A)): LIN28 levels comparable to vehicle control; also recorded: rescued | let-7i levels in DFMO treated cells (hsa-let-7i; HCT116, putrescine after DFMO administration (FIG. 1D)): rescued | let-7i levels in cultures not treated with drug (hsa-let-7i; HCT116, putrescine alone (FIG. 1D)): no observable effect

Cc1ccc(-c2cc(C(F)(F)F)nn2-c2ccc(S(N)(=O)=O)cc2)cc1 [celecoxib, 4-[5-(4-Methylphenyl)-3-(trifluoromethyl)pyrazol-1-yl]benzenesulfonamide]
increase in rates of heart and blood vessel disease [3]: 30% | risk of gastrointestinal side effects [3]: greater than 80%

anti-let-7 LNA: locked nucleic acid antisense oligo, phosphorothioate backbone, against let-7 seed region: ACTACCTC (SEQ ID NO: 1) (all phosphorothioate, sugars by position and methylation of C not given here; LNA oligo)
HMGA2 protein in DFMO-treated cells (HMGA2; LNA transfected DFMO-treated HCT116 cells (FIG. 2C)): rescued | HMGA2 protein levels, cells without DFMO (HMGA2; LNA transfected mock-treated HCT116 cells (FIG. 2C, 3C), listed as LNAs targeting let-7): increase in HMGA2 protein levels; also recorded: increased | wild-type Hmga2 3′ UTR luciferase activity (Hmga2 3′ UTR; 25 nM LNA, both DFMO treated and untreated HCT116 cells (FIG. 2B)): enhanced luciferase activity | mutated 3′ UTR Hmga2 luciferase activity (Hmga2 3′ UTR; 25 nM LNA, irrespective of polyamine levels (FIG. 2B)): no observable effect | LIN28 expression (LIN28; 25 nM anti-let-7 LNA, HCT116 cells (FIG. 3C)): little effect

CC1=C(CC(=O)O)c2cc(F)ccc2/C1=C\c1ccc([S+](C)[O-])cc1 (stereo not shown) [sulindac, (Z)-5-fluoro-2-methyl-1-((4 (methylsulfinyl)phenyl)methylene) 1H-indene-3-acetic acid]
patients with mild gastrointestinal effects ([4]; abdominal pain and nausea most frequent): ~20% | patients with skin rash and pruritus ([4]; human, in vivo): 5% | time to peak plasma levels, with food ([5]; administered with food): 3 to 4 h | fraction of the drug absorbed ([5]; after oral administration): about 90% | time to peak plasma levels, fasting ([5]; fasting patients): about 2 h
